Measurements published in patent publication US20230304058A1, “NOVEL 5'CAP ANALOG HAVING CAP2 STRUCTURE AND PREPARATION METHOD THEREFOR” (Shenzhen Rhegen Biotechnology Co., Ltd., priority 2020, published 2023).

Experiments:
T7 Enzyme Mix = T7 Enzyme Mix (Escherichia phage T7, UniProt P00573); experiment: In vitro transcription mRNA synthesis with cap analog, reaction yield; format: biochemical; settings: per ml transcription reaction system; 37° C. for 6 h; LiCl purification
Experimental: 1. Before synthesizing mRNA, linearize the plasmid with Notl, digested at […] overnight;
2. Extract with DNA template;
React at 37° C. for 6 h. Digest with TURBO DNase for 15 min.
4. Purify the transcription products using LiCl solution and calculate the reaction yields.

mRNA = mRNA capping rate by RNase H cleavage and LC-MS; format: biochemical; settings: ratio of capped and uncapped mRNA
From the text: The mRNA molecules with different Cap structures obtained in Example 1 were subjected to enzymatic cleavage, and the ratio of capped and uncapped mRNA molecules could be determined in a liquid chromatography-mass spectrometry analysis experiment.
1. Concentrate the beads using a magnet, aspirate the supernatant storage solution, and add an equal volume of 0.1 M NaOH +0.05 M NaCl;
2. Aspirate the supernatant and resuspend the beads with an equal volume of 0.1 M NaCl, keep the concentration constant;
3. Anneal mRNA and cleavage tags, configure the following reaction system;
Gradient annealing: 95° C. 5 min
4. Combining cleavage tags with beads • Beads were centrifuged at 15,000 g for 5 min, and the supernatant was removed, then 120 μl of annealed mRNA and tags were added and incubated for 30 min at room temperature, during which time they were gently shaken to ensure adequate binding.
5. Enzyme cleavage using RNase H; • Add 10 μl RNase H and incubate at 37° C. for 3 h. Precipitate the beads with magnet and discard the supernatant. • Add 100 μl washing buffer, mix thoroughly, magnet precipitate for 2 min, and discard the supernatant. Repeat 3 times. • Wash with DI water for 3 times.
6. Hydrolysis with RppH; • Use 10 units RppH in nebuffer 2 to hydrolyze at room temperature for 1 h.
DI water was aspirated, 100 μl of 75% ethanol preheated to 80° C. was added, incubat for 3 min, and magnet precipitat for 3 min. The supernatant was taken, followed by evaporating, and centrifuge for 45 min to a volume of 10 μl. Finally, the sample was resuspended in 50 μl of […] EDTA/1% MeOH and left for LC-MS analysis.
9. the mRNA capping rate of different Cap analogs synthesized was analyzed with LC-MS.

[1] = system: TLR3, TLR7, TLR8 and RIG-1; experiment: Intracellular immunogenicity of capped mRNA by RNA immunoprecipitation and quantitative PCR; format: cell-based; settings: relative to ARCA; Human-derived PBMC cells, 5 μg mRNA, Lipofectamine 2000, 24 h
Experimental: Experimental methods: the intracellular immunoproteins TLR3, TLR7, TLR8 and RIG-1 were immunoprecipitated together with their bound RNAs by RNA immunoprecipitation, and finally these mRNAs were identified by real-time quantitative PCR, and their relative abundance was proportional to their immunogenicity.
The cells were collected by trypsin digestion 24 h later and resuspended in PBS, centrifuged, and collected.
Fixative was added to the cells, and after 15 minutes glycine was added for termination of fixation, followed by centrifugation to collect the cells. Cells were resuspended by adding lysate, incubated on ice at 4° C. for 30 min, centrifuged at 2400 g for 10 min, and the supernatant was collected.
TLR3, TLR7, TLR8 and RIG-1 antibodies (2-10 μg) were added to the supernatant (6-10 mg) followed by gentle incubation at 4° C. for 2 hours. Protein AIG beads (40 μL) were then added to them and incubated gently for 1 h at 4° C.
Centrifuge at 2500 rpm for 30 seconds with precipitated magnetic beads and remove the supernatant. Resuspend the beads in 500 μL of RIP buffer. Wash in RIP buffer a total of three times, followed by one wash in PBS.
Resuspend magnetic beads in TRIzol RNA Extraction Reagent (1 mL) and isolate co-precipitated RNA, and then elute RNA using nuclease-free water (20 μL).
6. Reverse transcribe (RT) the RNA into cDNA and design primers according to the mRNA sequence for quantitative PCR analysis. mRNA immunogenicity is proportional to the number of mRNA copies precipitated by magnetic beads.

T7 Enzyme Mix, sequence (P00573 whole entry): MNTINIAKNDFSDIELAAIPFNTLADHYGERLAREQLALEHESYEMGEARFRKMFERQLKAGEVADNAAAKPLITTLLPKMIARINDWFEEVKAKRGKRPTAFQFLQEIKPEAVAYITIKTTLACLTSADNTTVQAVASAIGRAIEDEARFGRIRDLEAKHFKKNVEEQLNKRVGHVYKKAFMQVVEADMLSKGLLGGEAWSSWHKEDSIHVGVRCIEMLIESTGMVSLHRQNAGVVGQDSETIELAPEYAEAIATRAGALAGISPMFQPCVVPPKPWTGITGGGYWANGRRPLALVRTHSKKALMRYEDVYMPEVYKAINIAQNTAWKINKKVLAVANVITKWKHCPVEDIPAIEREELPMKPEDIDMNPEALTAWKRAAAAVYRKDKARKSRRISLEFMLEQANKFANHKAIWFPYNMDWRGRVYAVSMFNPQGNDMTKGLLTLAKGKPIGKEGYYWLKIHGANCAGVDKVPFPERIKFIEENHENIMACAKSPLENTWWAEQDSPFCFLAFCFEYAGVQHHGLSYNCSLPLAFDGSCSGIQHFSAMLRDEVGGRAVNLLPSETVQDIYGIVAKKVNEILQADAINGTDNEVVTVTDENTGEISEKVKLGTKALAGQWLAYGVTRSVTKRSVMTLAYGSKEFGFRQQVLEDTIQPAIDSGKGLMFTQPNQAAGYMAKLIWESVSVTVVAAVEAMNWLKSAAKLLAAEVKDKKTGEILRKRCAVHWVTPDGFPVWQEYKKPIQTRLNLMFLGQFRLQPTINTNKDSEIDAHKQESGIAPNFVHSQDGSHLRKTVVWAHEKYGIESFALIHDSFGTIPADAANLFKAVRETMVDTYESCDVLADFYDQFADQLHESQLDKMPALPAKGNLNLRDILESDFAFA

How did the “Mass of final product obtained from 1 ml mRNA synthesis reaction system” value (shortened to “Mass of final product obtained”) (T7 Enzyme Mix) turn out when CO[C@@H]1[C@H](O)[C@@H](COP(=O)(O)O[C@H]2[C@@H](OC)[C@H](n3cnc4c(N)ncnc43)O[C@@H]2COP(=O)(O)OP(=O)(O)OP(=O)([O-])OC[C@H]2O[C@@H](n3c[n+](C)c4c(=O)[nH]c(N)nc43)[C@H](O)[C@@H]2O)O[C@H]1n1ccc(=O)[nH]c1=O [Cap analog 13, m7G(5′)ppp(5′)(2′OMeA)p(2′OMeU)] was run?
Its value is 5.1 mg.

And the “mRNA capping rates when using different Cap structures” value (mRNA)?
The value was 94.77%.

What about the “Intracellular immunogenicity of mRNA when using different Cap structures” value [1] of the same compound?
Its value is 0.23.

For CO[C@@H]1[C@H](O)[C@@H](COP(=O)(O)O[C@H]2[C@@H](OC)[C@H](n3cnc4c(=O)[nH]c(N)nc43)O[C@@H]2COP(=O)(O)OP(=O)(O)OP(=O)([O-])OC[C@H]2O[C@@H](n3c[n+](C)c4c(=O)[nH]c(N)nc43)[C@H](O)[C@@H]2O)O[C@H]1n1cnc2c(=O)[nH]c(N)nc21 [Cap analog 2, m7G(5′)ppp(5′)(2′OMeG)p(2′OMeG)], which “Mass of final product obtained” value (T7 Enzyme Mix) is on record?
The value was 4.9 mg.

What about the “mRNA capping rates when using different Cap structures” value (mRNA) of the same compound?
Its value is 95.1%.

And the “Intracellular immunogenicity of mRNA when using different Cap structures” value [1]?
Its value is 0.37.

Which “Mass of final product obtained” value (T7 Enzyme Mix) does the source give for CO[C@@H]1[C@H](O)[C@@H](COP(=O)(O)O[C@H]2[C@@H](OC)[C@H](n3cnc4c(=O)[nH]c(N)nc43)O[C@@H]2COP(=O)(O)OP(=O)(O)OP(=O)([O-])OC[C@H]2O[C@@H](n3c[n+](C)c4c(=O)[nH]c(N)nc43)[C@H](O)[C@@H]2OC)O[C@H]1n1ccc(=O)[nH]c1=O [Cap analog 30, 3-O-Me-m7G(5′)ppp(5′)(2′OMeG)p(2′OMeU)] here?
The value was 5.3 mg.

What about the “mRNA capping rates when using different Cap structures” value (mRNA) of the same compound?
Its value is 94.8%.

And the “Intracellular immunogenicity of mRNA when using different Cap structures” value [1]?
The value was 0.31.

What does the source list for CO[C@@H]1[C@H](O)[C@@H](COP(=O)(O)O[C@H]2[C@@H](OC)[C@H](n3cnc4c(N)ncnc43)O[C@@H]2COP(=O)(O)OP(=O)(O)OP(=O)([O-])OC[C@H]2O[C@@H](n3c[n+](C)c4c(=O)[nH]c(N)nc43)[C@H](O)[C@@H]2O)O[C@H]1n1ccc(N)nc1=O [Cap analog 9, m7G(5′)ppp(5′)(2′OMeA)p(2′OMeC)]?
Mass of final product obtained from 1 ml mRNA synthesis reaction system (T7 Enzyme Mix): 4.8 mg; mRNA capping rates when using different Cap structures (mRNA): 94.73%; Intracellular immunogenicity of mRNA when using different Cap structures [1]: 0.4

With CO[C@@H]1[C@H](O)[C@@H](COP(=O)(O)O[C@H]2[C@@H](OC)[C@H](n3cnc4c(N)ncnc43)O[C@@H]2COP(=O)(O)OP(=O)(O)OP(=O)([O-])OC[C@H]2O[C@@H](n3c[n+](C)c4c(=O)[nH]c(N)nc43)[C@H](O)[C@@H]2OC)O[C@H]1n1cnc2c(N)ncnc21 [Cap analog 21, 3-O-Me-m7G(5′)ppp(5′)(2′OMeA)p(2′OMeA)] as the compound, how does the “Mass of final product obtained” value (T7 Enzyme Mix) read?
Its value is 4.8 mg.

And the “mRNA capping rates when using different Cap structures” value (mRNA)?
The value was 94.55%.

And the “Intracellular immunogenicity of mRNA when using different Cap structures” value [1]?
Its value is 0.15.

What does the source list for CO[C@@H]1[C@H](O)[C@@H](COP(=O)(O)O[C@H]2[C@@H](OC)[C@H](n3cnc4c(N)ncnc43)O[C@@H]2COP(=O)(O)OP(=O)(O)OP(=O)([O-])OC[C@H]2O[C@@H](n3c[n+](C)c4c(=O)[nH]c(N)nc43)[C@H](O)[C@@H]2OC)O[C@H]1n1ccc(N)nc1=O [Cap analog 25, 3-O-Me-m7G(5′)ppp(5′)(2′OMeA)p(2′OMeC)]?
Mass of final product obtained from 1 ml mRNA synthesis reaction system (T7 Enzyme Mix): 4.1 mg; mRNA capping rates when using different Cap structures (mRNA): 94.8%; Intracellular immunogenicity of mRNA when using different Cap structures [1]: 0.29

What does the source list for CO[C@@H]1[C@H](OP(=O)(O)OC[C@H]2O[C@@H](n3cnc4c(N)ncnc43)[C@H](OC)[C@@H]2O)[C@@H](COP(=O)(O)OP(=O)(O)OP(=O)([O-])OC[C@H]2O[C@@H](n3c[n+](C)c4c(=O)[nH]c(N)nc43)[C@H](O)[C@@H]2O)O[C@H]1n1ccc(=O)[nH]c1=O [Cap analog 8, m7G(5′)ppp(5′)(2′OMeU)p(2′OMeA)]?
Mass of final product obtained from 1 ml mRNA synthesis reaction system (T7 Enzyme Mix): 5.3 mg; mRNA capping rates when using different Cap structures (mRNA): 94.79%; Intracellular immunogenicity of mRNA when using different Cap structures [1]: 0.31

Which results are given for CO[C@@H]1[C@H](OP(=O)(O)OC[C@H]2O[C@@H](n3cnc4c(N)ncnc43)[C@H](OC)[C@@H]2O)[C@@H](COP(=O)(O)OP(=O)(O)OP(=O)([O-])OC[C@H]2O[C@@H](n3c[n+](C)c4c(=O)[nH]c(N)nc43)[C@H](O)[C@@H]2O)O[C@H]1n1ccc(N)nc1=O [Cap analog 7, m7G(5′)ppp(5′)(2′OMeC)p(2′OMeA)]?
Mass of final product obtained from 1 ml mRNA synthesis reaction system (T7 Enzyme Mix): 5.3 mg; mRNA capping rates when using different Cap structures (mRNA): 94.76%; Intracellular immunogenicity of mRNA when using different Cap structures [1]: 0.24

What does the source list for CO[C@@H]1[C@H](O)[C@@H](COP(=O)(O)O[C@H]2[C@@H](OC)[C@H](n3cnc4c(N)ncnc43)O[C@@H]2COP(=O)(O)OP(=O)(O)OP(=O)([O-])OC[C@H]2O[C@@H](n3c[n+](C)c4c(=O)[nH]c(N)nc43)[C@H](O)[C@@H]2O)O[C@H]1n1cnc2c(=O)[nH]c(N)nc21 [Cap analog 1, m7G(5′)ppp(5′)(2′OMeA)p(2′OMeG)]?
Mass of final product obtained from 1 ml mRNA synthesis reaction system (T7 Enzyme Mix): 4.5 mg; mRNA capping rates when using different Cap structures (mRNA): 94.91%; Intracellular immunogenicity of mRNA when using different Cap structures [1]: 0.40

For CO[C@@H]1[C@H](O)[C@@H](COP(=O)(O)O[C@H]2[C@@H](OC)[C@H](n3ccc(=O)[nH]c3=O)O[C@@H]2COP(=O)(O)OP(=O)(O)OP(=O)([O-])OC[C@H]2O[C@@H](n3c[n+](C)c4c(=O)[nH]c(N)nc43)[C@H](O)[C@@H]2O)O[C@H]1n1ccc(N)nc1=O [Cap analog 12, m7G(5′)ppp(5′)(2′OMeU)p(2′OMeC)], which “Mass of final product obtained” value (T7 Enzyme Mix) is on record?
Its value is 4.9 mg.

And the “mRNA capping rates when using different Cap structures” value (mRNA)?
The value was 94.86%.

What about the “Intracellular immunogenicity of mRNA when using different Cap structures” value [1] of the same compound?
The value was 0.19.

What does the source list for CO[C@@H]1[C@H](O)[C@@H](COP(=O)(O)O[C@H]2[C@@H](OC)[C@H](n3ccc(=O)[nH]c3=O)O[C@@H]2COP(=O)(O)OP(=O)(O)OP(=O)([O-])OC[C@H]2O[C@@H](n3c[n+](C)c4c(=O)[nH]c(N)nc43)[C@H](O)[C@@H]2OC)O[C@H]1n1ccc(=O)[nH]c1=O [Cap analog 32, 3-O-Me-m7G(5′)ppp(5′)(2′OMeU)p(2′OMeU)]?
Mass of final product obtained from 1 ml mRNA synthesis reaction system (T7 Enzyme Mix): 4.3 mg; mRNA capping rates when using different Cap structures (mRNA): 94.66%; Intracellular immunogenicity of mRNA when using different Cap structures [1]: 0.3

What does the source list for CO[C@@H]1[C@H](O)[C@@H](COP(=O)(O)O[C@H]2[C@@H](OC)[C@H](n3cnc4c(=O)[nH]c(N)nc43)O[C@@H]2COP(=O)(O)OP(=O)(O)OP(=O)([O-])OC[C@H]2O[C@@H](n3c[n+](C)c4c(=O)[nH]c(N)nc43)[C@H](O)[C@@H]2OC)O[C@H]1n1ccc(N)nc1=O [Cap analog 26, 3-O-Me-m7G(5′)ppp(5′)(2′OMeG)p(2′OMeC)]?
Mass of final product obtained from 1 ml mRNA synthesis reaction system (T7 Enzyme Mix): 4.6 mg; mRNA capping rates when using different Cap structures (mRNA): 94.97%; Intracellular immunogenicity of mRNA when using different Cap structures [1]: 0.49

Which results are given for CO[C@@H]1[C@H](OP(=O)(O)OC[C@H]2O[C@@H](n3cnc4c(=O)[nH]c(N)nc43)[C@H](OC)[C@@H]2O)[C@@H](COP(=O)(O)OP(=O)(O)OP(=O)([O-])OC[C@H]2O[C@@H](n3c[n+](C)c4c(=O)[nH]c(N)nc43)[C@H](O)[C@@H]2O)O[C@H]1n1ccc(=O)[nH]c1=O [Cap analog 4, m7G(5′)ppp(5′)(2′OMeU)p(2′OMeG)]?
Mass of final product obtained from 1 ml mRNA synthesis reaction system (T7 Enzyme Mix): 4.7 mg; mRNA capping rates when using different Cap structures (mRNA): 94.72%; Intracellular immunogenicity of mRNA when using different Cap structures [1]: 0.48
